In data set [1] the test system is HCC1569. Description: Antiproliferative activity against human HCC1569 cells incubated for 48 to 96 hrs by CCK-8 assay. Type of data set: functional, cell-based. (Tetrazolium assays rely on reduction of a dye to a coloured formazan, in cell work by metabolically active cells.)
Data set [2] deals with ZR-75-1. Description: Antiproliferative activity against human ZR-75-1 cells incubated for 48 to 96 hrs by CCK-8 assay. The data set is classed as functional, cell-based.
Data set [3] deals with Membrane-associated tyrosine- and threonine-specific cdc2-inhibitory kinase (Homo sapiens, UniProt Q99640). The experiment in a line: Inhibition of recombinant human GST-tagged PKMYT1 (75 to 362 residues) expressed in insect cells using GTDEGIYDVPLLG as substrate preincubated for 15 mins followed by substrate and ATP addition and measured after 1 hr by ADP-Glo kinase assay. Details: species or system Insect cell. On the technique in general: ADP-Glo turns the ADP formed in a reaction into a luminescent signal.

For a further data set, the target named is Wee1-like protein kinase (Homo sapiens, UniProt P30291). Description: Inhibition of recombinant full-length human GST-tagged Wee1 expressed in insect cells using KIGEGTYGVVYKG as substrate preincubated for 15 mins followed by substrate and ATP addition and measured after 1 hr by ADP-Glo kinase assay. Further details: species or system Insect cell.
In a further data set the target is Activated CDC42 kinase 1 (Homo sapiens, UniProt Q07912). The experiment in a line: Inhibition of ACK1 (unknown origin).
Data set [4] deals with Tyrosine-protein kinase ABL2 (Homo sapiens, UniProt P42684). The experiment in a line: Inhibition of Arg (unknown origin).
The target in data set [5] is Tyrosine-protein kinase Blk (Homo sapiens, UniProt P51451). The experiment in a line: Inhibition of BLK (unknown origin).
Data set [6] deals with Protein-tyrosine kinase 6 (Homo sapiens, UniProt Q13882). The experiment in a line: Inhibition of BRK (unknown origin).
Data set [7] concerns the target Proto-oncogene tyrosine-protein kinase Src (Homo sapiens, UniProt P12931). The experiment in a line: Inhibition of cSRC (unknown origin).
Data set [8] concerns the target Epithelial discoidin domain-containing receptor 1 (Homo sapiens, UniProt Q08345). The experiment in a line: Inhibition of DDR1 (unknown origin).
For the next data set, the target named is Ephrin type-A receptor 1 (Homo sapiens, UniProt P21709). Description: Inhibition of EphA1 (unknown origin).
For the next data set, the target named is Ephrin type-B receptor 2 (Homo sapiens, UniProt P29323). The experiment in a line: Inhibition of EphB2 (unknown origin).
In the next data set the target is Ephrin type-B receptor 1 (Homo sapiens, UniProt P54762). The experiment in a line: Inhibition of EphB1 (unknown origin).
For the next data set, the target named is Ephrin type-B receptor 4 (Homo sapiens, UniProt P54760). Description: Inhibition of EphB4 (unknown origin).
The target in data set [9] is Tyrosine-protein kinase Fgr (Homo sapiens, UniProt P09769). Description: Inhibition of Fgr (unknown origin).
Data set [10] concerns the target Tyrosine-protein kinase HCK (Homo sapiens, UniProt P08631). The experiment in a line: Inhibition of HCK (unknown origin).
For data set [11], the target named is Tyrosine-protein kinase Lck (Homo sapiens, UniProt P06239). Description: Inhibition of LCK (unknown origin).
Data set [12] deals with Tyrosine-protein kinase Lyn (Homo sapiens, UniProt P07948). The experiment in a line: Inhibition of Lyn (unknown origin).
The target in data set [13] is Tyrosine-protein kinase Yes (Homo sapiens, UniProt P07947). The experiment in a line: Inhibition of YES (unknown origin).
Data set [14] deals with Cyclin-dependent kinase 1 (Homo sapiens) (UniProt P06493). Description: Inhibition of CDK1 phosphorylation at Thr14 in human HCC1569 cells after 4 hrs by Western blotting analysis. Type of data set: cell-based. Particulars: dose 0.1-2 µM.
Data set [15] has the same target. Description: Inhibition of CDK1 phosphorylation at Thr14 in human HCC1569 cells at 2 uM after 8 to 12 hrs by Western blotting analysis. Type of data set: cell-based. Particulars: time 8-12 hrs. A general note: In western blotting, separated proteins are transferred to a membrane and probed.
Data set [16] has the same target. Description: Inhibition of CDK1 phosphorylation at […] in human HCC1569 cells at 2 uM after 0.5 to 12 hrs by Western blotting analysis. The data set is classed as cell-based. Particulars: time 0.5-12 hrs.
The target in data set [17] is Cyclin-dependent kinase 2 (Homo sapiens) (UniProt P24941). Description: Inhibition of CDK2 phosphorylation at Tyr15 in human HCC1569 cells at 0.1 to 2 uM after 4 hrs by Western blotting analysis. Type of data set: cell-based. To be noted: dose 0.1-2 µM.
Data set [18] relates to HCC1569. The experiment in a line: Inhibition of colony formation in CCNE1-amplified human HCC1569 cells incubated for 14 days by crystal violet staining based microplate reader assay. The data set is classed as functional, cell-based. Particulars: HCC1569, 336 h.
For data set [19], the system named is ZR-75-1. Description: Inhibition of colony formation in human ZR-75-1 cells incubated for 14 days by crystal violet staining based microplate reader assay. The data set is classed as functional, cell-based. Particulars: ZR-75-1, 336 h.
The test system of data set [20] is HCC1569. The experiment in a line: Induction of DNA damage in human HCC1569 cells assessed as upregulation of gammaH2AX level after 4 hrs by Western blotting analysis. Type of data set: functional, cell-based. Particulars: dose 0.1-2 µM.
Data set [21] relates to HCC1569. Description: Induction of DNA damage in human HCC1569 cells assessed as upregulation of gammaH2AX level at 2 uM by Western blotting analysis. Particulars: time 0.5-12 hrs, TDE = time-dependent effect. Type of data set: functional, cell-based.
The subject of data set [22] is HCC1569. Description: Synergistic cytotoxicity against human HCC1569 cells after 48 to 96 hrs. Type of data set: functional, cell-based. To be noted: time 48-96 hrs.
The subject of data set [23] is HCC1569. Description: Induction of DNA damage in human HCC1569 cells assessed as upregulation of gammaH2AX level at 62.5 to 500 nM after 48 hrs in presence of gemcitabine by Western blotting analysis. Type of data set: functional, cell-based. To be noted: dose 62.5-500 nM.
Data set [24] can be described thus: Cmax in Sprague-Dawley rat at 10 mg/kg, po measured upto 24 hrs by LC-MS/MS analysis. Type of data set: ADME, organism-based. To be noted: in vivo.
Data set [25] is described as follows: AUC(0 to t) in Sprague-Dawley rat at 10 mg/kg, po measured upto 24 hrs by LC-MS/MS analysis. Type of data set: ADME, organism-based. To be noted: in vivo.
The nature of data set [26]: Clearance in Sprague-Dawley rat at 10 mg/kg, po measured upto 24 hrs by LC-MS/MS analysis. The data set is classed as ADME, organism-based. To be noted: in vivo.

Calls of active or inactive are those of the source. No cut-off for these calls is given here.

Cyclin-dependent kinase 1 (Homo sapiens), sequence (P06493 whole entry, looked up): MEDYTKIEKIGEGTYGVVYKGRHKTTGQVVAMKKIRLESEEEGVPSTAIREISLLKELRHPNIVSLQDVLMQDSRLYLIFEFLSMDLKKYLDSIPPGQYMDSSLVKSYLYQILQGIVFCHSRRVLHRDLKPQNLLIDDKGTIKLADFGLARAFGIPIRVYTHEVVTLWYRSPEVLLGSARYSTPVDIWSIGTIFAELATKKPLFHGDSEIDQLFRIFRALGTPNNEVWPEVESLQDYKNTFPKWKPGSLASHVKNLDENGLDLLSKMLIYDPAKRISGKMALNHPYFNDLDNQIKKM
Membrane-associated tyrosine- and threonine-specific cdc2-inhibitory kinase, sequence (Q99640 whole entry, the tested form may be a part): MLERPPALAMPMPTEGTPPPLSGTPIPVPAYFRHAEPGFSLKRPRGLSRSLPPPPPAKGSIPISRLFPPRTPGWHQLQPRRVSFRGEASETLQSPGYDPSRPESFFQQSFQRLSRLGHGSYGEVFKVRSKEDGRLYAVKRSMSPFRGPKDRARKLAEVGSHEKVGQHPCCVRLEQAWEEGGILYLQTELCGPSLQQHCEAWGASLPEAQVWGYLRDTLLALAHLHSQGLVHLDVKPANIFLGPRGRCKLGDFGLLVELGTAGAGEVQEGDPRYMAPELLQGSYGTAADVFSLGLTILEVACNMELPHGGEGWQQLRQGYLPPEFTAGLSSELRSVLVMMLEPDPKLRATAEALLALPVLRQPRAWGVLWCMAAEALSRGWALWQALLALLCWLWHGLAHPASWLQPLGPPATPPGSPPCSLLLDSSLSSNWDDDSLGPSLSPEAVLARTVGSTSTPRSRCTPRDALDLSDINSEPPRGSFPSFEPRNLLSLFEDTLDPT
Tyrosine-protein kinase Fgr, sequence (P09769 whole entry): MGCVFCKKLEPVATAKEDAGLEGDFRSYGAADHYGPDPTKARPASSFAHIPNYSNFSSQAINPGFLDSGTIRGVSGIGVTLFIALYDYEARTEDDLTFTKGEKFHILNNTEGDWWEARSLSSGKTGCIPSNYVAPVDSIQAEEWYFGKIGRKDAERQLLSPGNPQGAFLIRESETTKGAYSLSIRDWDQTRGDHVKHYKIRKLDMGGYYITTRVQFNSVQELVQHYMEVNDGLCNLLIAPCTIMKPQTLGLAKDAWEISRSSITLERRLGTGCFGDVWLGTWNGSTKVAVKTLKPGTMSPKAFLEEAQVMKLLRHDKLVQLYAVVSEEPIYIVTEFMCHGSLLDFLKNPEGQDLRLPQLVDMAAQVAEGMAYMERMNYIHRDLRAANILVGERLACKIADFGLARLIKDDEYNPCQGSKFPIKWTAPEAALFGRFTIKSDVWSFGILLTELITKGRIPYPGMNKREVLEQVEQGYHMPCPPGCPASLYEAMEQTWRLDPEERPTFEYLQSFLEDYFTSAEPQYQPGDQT
Tyrosine-protein kinase Blk, sequence (P51451 whole entry): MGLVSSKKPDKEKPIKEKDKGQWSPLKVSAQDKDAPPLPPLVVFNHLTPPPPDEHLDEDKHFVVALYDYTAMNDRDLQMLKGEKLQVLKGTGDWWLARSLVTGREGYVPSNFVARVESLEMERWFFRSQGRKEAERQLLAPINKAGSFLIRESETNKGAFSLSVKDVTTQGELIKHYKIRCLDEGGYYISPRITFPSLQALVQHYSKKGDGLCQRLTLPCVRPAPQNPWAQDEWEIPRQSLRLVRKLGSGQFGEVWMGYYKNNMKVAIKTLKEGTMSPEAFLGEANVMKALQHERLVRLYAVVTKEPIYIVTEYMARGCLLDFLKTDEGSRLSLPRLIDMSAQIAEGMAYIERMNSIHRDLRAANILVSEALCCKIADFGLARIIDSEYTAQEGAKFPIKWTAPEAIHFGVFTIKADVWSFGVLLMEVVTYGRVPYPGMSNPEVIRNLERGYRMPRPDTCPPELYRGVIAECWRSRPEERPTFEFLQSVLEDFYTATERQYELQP
Tyrosine-protein kinase ABL2, sequence (P42684 whole entry): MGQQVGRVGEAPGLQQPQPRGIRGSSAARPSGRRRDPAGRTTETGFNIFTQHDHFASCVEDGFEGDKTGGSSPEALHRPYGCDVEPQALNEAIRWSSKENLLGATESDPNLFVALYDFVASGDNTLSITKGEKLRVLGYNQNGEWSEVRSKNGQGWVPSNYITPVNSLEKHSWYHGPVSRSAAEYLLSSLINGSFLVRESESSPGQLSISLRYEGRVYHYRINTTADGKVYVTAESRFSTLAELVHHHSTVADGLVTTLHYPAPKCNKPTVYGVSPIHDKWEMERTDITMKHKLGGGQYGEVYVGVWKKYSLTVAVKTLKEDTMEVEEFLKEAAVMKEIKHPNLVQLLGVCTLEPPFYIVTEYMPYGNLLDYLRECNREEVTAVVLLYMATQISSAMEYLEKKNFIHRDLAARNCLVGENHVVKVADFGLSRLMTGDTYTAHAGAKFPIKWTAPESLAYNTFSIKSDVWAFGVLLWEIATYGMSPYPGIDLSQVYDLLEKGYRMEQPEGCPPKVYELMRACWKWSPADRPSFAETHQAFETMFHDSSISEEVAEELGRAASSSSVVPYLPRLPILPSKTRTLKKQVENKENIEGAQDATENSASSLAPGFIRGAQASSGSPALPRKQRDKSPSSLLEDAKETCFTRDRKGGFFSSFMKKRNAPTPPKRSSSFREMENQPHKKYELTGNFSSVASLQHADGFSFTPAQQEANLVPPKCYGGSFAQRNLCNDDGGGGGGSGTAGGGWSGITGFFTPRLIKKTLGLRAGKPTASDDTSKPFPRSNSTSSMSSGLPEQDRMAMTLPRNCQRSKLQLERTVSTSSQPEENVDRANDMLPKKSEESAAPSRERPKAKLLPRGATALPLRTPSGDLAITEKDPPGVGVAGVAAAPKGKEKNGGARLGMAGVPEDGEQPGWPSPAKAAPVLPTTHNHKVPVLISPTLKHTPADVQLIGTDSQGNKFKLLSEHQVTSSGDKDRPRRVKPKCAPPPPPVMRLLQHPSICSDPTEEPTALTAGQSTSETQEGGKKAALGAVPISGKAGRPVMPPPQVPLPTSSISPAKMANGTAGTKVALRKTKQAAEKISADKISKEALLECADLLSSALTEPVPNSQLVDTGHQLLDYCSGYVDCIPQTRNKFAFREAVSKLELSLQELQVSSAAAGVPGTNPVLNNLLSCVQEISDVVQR
Ephrin type-A receptor 1, sequence (P21709 whole entry): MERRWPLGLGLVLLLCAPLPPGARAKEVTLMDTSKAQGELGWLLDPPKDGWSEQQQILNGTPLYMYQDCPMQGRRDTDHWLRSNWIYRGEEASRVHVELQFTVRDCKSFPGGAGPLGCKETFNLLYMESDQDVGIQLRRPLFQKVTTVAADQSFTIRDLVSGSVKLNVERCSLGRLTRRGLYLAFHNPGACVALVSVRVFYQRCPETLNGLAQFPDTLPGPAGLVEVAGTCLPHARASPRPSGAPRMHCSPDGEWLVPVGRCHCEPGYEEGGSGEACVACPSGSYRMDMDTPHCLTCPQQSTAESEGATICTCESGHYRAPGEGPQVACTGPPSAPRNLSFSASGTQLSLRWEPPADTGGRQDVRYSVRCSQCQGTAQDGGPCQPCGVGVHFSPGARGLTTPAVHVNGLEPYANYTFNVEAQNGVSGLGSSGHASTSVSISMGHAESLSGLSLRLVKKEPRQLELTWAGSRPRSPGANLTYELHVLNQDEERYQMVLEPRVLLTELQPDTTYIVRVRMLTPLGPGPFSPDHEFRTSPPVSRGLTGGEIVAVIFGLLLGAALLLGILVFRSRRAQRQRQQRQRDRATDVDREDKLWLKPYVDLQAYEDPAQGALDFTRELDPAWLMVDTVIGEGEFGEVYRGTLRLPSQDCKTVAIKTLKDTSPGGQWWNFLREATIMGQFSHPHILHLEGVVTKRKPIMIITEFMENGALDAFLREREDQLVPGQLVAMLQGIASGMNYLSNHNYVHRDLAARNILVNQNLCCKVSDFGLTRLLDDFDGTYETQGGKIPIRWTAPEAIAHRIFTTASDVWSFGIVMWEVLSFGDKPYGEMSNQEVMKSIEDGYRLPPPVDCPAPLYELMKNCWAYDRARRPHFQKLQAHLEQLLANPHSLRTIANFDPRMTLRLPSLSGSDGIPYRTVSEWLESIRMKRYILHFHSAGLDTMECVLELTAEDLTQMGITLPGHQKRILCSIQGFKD
Ephrin type-B receptor 1, sequence (P54762 whole entry): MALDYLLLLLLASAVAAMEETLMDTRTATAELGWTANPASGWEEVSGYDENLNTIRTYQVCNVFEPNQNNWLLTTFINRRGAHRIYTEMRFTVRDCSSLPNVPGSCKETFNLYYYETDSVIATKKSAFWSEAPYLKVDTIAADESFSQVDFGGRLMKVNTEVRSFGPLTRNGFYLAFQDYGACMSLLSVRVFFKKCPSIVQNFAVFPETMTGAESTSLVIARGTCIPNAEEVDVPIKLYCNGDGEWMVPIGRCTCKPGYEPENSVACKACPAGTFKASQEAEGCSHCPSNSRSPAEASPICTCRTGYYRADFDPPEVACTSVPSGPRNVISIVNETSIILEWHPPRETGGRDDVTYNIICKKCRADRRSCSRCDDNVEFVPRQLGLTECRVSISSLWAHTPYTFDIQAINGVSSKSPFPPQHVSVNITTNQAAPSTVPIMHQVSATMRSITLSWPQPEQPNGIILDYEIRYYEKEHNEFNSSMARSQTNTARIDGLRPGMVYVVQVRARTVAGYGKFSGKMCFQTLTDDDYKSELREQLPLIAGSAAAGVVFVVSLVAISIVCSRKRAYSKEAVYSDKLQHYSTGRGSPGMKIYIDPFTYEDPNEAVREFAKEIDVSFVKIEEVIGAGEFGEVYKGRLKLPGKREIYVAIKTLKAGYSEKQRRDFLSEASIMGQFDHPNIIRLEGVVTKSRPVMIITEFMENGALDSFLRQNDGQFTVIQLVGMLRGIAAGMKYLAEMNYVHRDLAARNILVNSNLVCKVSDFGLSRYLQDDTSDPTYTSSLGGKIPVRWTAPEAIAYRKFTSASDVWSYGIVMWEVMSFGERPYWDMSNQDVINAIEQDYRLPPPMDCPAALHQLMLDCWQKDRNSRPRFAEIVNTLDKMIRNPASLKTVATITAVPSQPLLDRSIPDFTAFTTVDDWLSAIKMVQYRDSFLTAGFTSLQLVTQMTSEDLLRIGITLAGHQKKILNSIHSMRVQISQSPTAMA

For orientation: IC50 means the concentration needed to halve the response being measured. Consider `CN[C@@H]1CCN(c2cc(-c3cc(C(N)=O)c(N)c(-c4c(C)ccc(O)c4C)c3)ccn2)C1`, for which the results for the IC50 in the data set on HCC1569 [1] and in the data set on ZR-75-1 [2] were 0.47 µM and 5.6 µM, respectively.
For `Cc1ccc(O)c(C)c1-c1cc(-c2ccnc(N3C[C@@H]4C[C@H]3CN4)c2)cc(C(N)=O)c1N` the same measures were 7.78 µM and greater than 20 µM.
For `Cc1ccc(O)c(C)c1-c1cc(-c2ccnc(N3CCNCC3)c2)cc(C(N)=O)c1N` the same measures were 1.39 µM and greater than 20 µM.
The like results for `Cc1ccc(O)c(C)c1-c1cc(-c2ccnc(N3CCOCC3)c2)cc(C(N)=O)c1N` were, in that order, 1.84 µM and greater than 20 µM.
With `Cc1ccc(O)c(C)c1-c1cc(-c2ccnc(OC[C@H]3CCNC3)c2)cc(C(N)=O)c1N`, the IC50 was determined as 2.19 µM in the data set on HCC1569 [1] and 8.53 µM in the data set with ZR-75-1 [2].
For `Cc1ccc(O)c(C)c1-c1cc(-c2ccnc(N3C4CNCC3C4)c2)cc(C(N)=O)c1N` the same measures were greater than 20 µM and greater than 20 µM.
The like results for `Cc1ccc(O)c(C)c1-c1cc(-c2ccnc(OC[C@@H]3CCCN3)c2)cc(C(N)=O)c1N` were, in that order, 1.18 µM and 7.12 µM.
For `Cc1ccc(O)c(C)c1-c1cc(-c2cc(OC(F)F)nc(N3CC[C@@H](N)C3)c2)cc(C(N)=O)c1N` the same measures were 0.8 µM and 4.15 µM.
On to `Cc1ccc(O)c(C)c1-c1cc(-c2ccnc(N3CC[C@@H](N)C3)c2)cc(C(N)=O)c1N`, for which the values for the IC50 with HCC1569 [1] and in the data set on ZR-75-1 [2] were 0.29 µM and 8.49 µM, respectively.
As usually defined, the inhibition is the change of the read-out against control, counted positive when it falls. One may read the EC50 as the concentration needed to bring the measured effect to its halfway point. In general, Cmax refers to the highest concentration seen after dosing. Regarding `Cc1ccc(O)c(C)c1-c1cc(-c2cc(F)nc(N3CC[C@@H](N)C3)c2)cc(C(N)=O)c1N`, the IC50 was 0.25 µM in the data set with HCC1569 [1]; 4.96 µM in the data set on ZR-75-1 [2]; 0.0165 µM in data set [3]; 8.2 µM on Wee1-like protein kinase; 0.268 µM against Activated CDC42 kinase 1; 0.0109 µM in [4]. The 50% inhibitory concentration (IC50) in [5] was found to be 0.0601 µM; in data set [6], 0.008 µM; in [7] it was 0.0099 µM; in data set [8], 0.0106 µM; on Ephrin type-A receptor 1, 0.11 µM; on Ephrin type-B receptor 2 it was 0.0272 µM. The half-inhibitory concentration (IC50) against Ephrin type-B receptor 1 was determined as 0.0416 µM; on Ephrin type-B receptor 4 it was 0.134 µM; in [9], 0.0093 µM; in [10] it was 0.0486 µM; in data set [11], 0.0145 µM; in [12] it was 0.0183 µM. Further, the half-inhibitory concentration (IC50) in [13] was greater than 1 µM. Besides, the inhibition result was “Dose-Dependent Effect” in [14] and 100% in data set [15]. The inhibition entry in [16] and in data set [17] was “inactive” each time. Besides, the EC50 was 0.117 µM in the data set on HCC1569 [18] and greater than 5 µM with ZR-75-1 [19]. Besides, the Activity entry was “Dose-Dependent Effect” with HCC1569 [20] and “Tde” in the data set with HCC1569 [21]. Also, the outcome in the data set on HCC1569 [22] and in the data set with HCC1569 [23] was Active. In [24], the Cmax was 6.17 ng/mL. Besides, the AUCt in [25] worked out at 6.51 ng·h/mL. In [26], this compound returned a CL of 5.53 L/h/kg.
For the compound `Cc1ccc(O)c(C)c1-c1cc(-c2ccncc2)cc(C(N)=O)c1N`, the IC50 with HCC1569 [1] came out at 0.77 µM; with ZR-75-1 [2] it was 11.6 µM; in data set [3], 0.101 µM.
As to `Cc1ccc(O)c(C)c1-c1cc(-c2ccnc(OCCCN)c2)cc(C(N)=O)c1N`, the IC50 in the data set with HCC1569 [1] is 9.48 µM; in the data set with ZR-75-1 [2], 15.4 µM.
The like results for `Cc1ccc(O)c(C)c1-c1cc(-c2ccnc(N3CC[C@H](N)C3)c2)cc(C(N)=O)c1N` were, in that order, 1.65 µM and greater than 20 µM.
For `Cc1ccc(O)c(C)c1-c1cc(-c2ccnc(OCCN)c2)cc(C(N)=O)c1N` the same measures were 1.66 µM and 4.4 µM.
Regarding `CNCCCOc1cc(-c2cc(C(N)=O)c(N)c(-c3c(C)ccc(O)c3C)c2)ccn1`, the results for the IC50 in the data set with HCC1569 [1] and in the data set with ZR-75-1 [2] were 2.49 µM and greater than 20 µM, respectively.
The like results for `Cc1ccc(O)c(C)c1-c1cc(-c2ccnc(OC3CCNCC3)c2)cc(C(N)=O)c1N` were, in that order, 3.84 µM and greater than 20 µM.
The like results for `Cc1ccc(O)c(C)c1-c1cc(-c2ccnc(N3CCCNCC3)c2)cc(C(N)=O)c1N` were, in that order, 0.29 µM and 4.83 µM.

Source of the values: ChEMBL document CHEMBL5584337, “Structure-Based Drug Design of 2-Amino-[1,1'-biphenyl]-3-carboxamide Derivatives as Selective PKMYT1 Inhibitors for the Treatment of CCNE1-Amplified Breast Cancer” (J Med Chem, 2024).
